Results reported in PubChem BioAssay AID330 (DTP/NCI, 2004).
Several values for one entry are separate records, joined by “and”; a condition that tells them apart may be missing. Identical values can stand only once. Inconclusive results and toxic doses are left out.

Tested on: P388 leukemia ip, CD2F1 mice, survival T/C
Assay: NCI In Vivo Anticancer Drug Screen. Data for tumor model P388 Leukemia (intraperitoneal) in CD2F1 (CDF1) mice
Conditions: endpoint: median survival time, higher = longer survival
How it was run: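 Mice carrying the transplanted tumor received test compound or vehicle. Survival was recorded in each group, and the value is the treated-group measurement divided by that of the vehicle-treated control group.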

[1] = dose: 50.0 mg/kg/injection, schedule: Q01DX009 (ip), vehicle: saline
[2] = dose: 100.0 mg/kg/injection, schedule: Q01DX009 (ip), vehicle: saline
[3] = dose: 200.0 mg/kg/injection, schedule: Q01DX009 (ip), vehicle: saline
[4] = dose: 120.0 mg/kg/injection, schedule: Q01DX005 (ip), vehicle: Klucel (hydroxypropylcellulose) (HPC)
[5] = dose: 240.0 mg/kg/injection, schedule: Q01DX005 (ip), vehicle: Klucel (hydroxypropylcellulose) (HPC)

Q: With COc1ccc(C(=O)Oc2ccc[nH]c2=O)cc1 as the molecule, how does the T/C [1] read?
A: 102 % of control and 107 % of control

Q: And the T/C [2]?
A: 99 % of control and 102 % of control

Q: And the T/C [3]?
A: 98 % of control and 102 % of control

Q: What about the T/C (dose: 400.0 mg/kg/injection, schedule: Q01DX009 (ip), vehicle: saline) of the same molecule?
A: 104 % of control and 93 % of control

Q: Which results are given for FS(F)(F)(F)(F)c1cccc(NC(=S)SCc2ccc(Cl)cc2)c1?
A: T/C [1]: 100 % of control; T/C [2]: 101 % of control and 95 % of control; T/C [3]: 107 % of control and 118 % of control

Q: For CCNc1cc2oc(=O)cc(C(F)(F)F)c2cc1C, which T/C (dose: 50.0 mg/kg/injection, schedule: Q01DX005 (ip), vehicle: Klucel (hydroxypropylcellulose) (HPC)) is on record?
A: 97 % of control

Q: And the T/C (dose: 100.0 mg/kg/injection, schedule: Q01DX005 (ip), vehicle: Klucel (hydroxypropylcellulose) (HPC))?
A: 100 % of control

Q: What about the T/C (dose: 200.0 mg/kg/injection, schedule: Q01DX005 (ip), vehicle: Klucel (hydroxypropylcellulose) (HPC)) of the same molecule?
A: 99 % of control

Q: O=C(O)c1cnc2c(C(F)(F)F)cccc2c1Nc1ccc2c(c1)OCO2 was tested. Which T/C (dose: 7.5 mg/kg/injection, schedule: Q01DX005 (ip), vehicle: Klucel (hydroxypropylcellulose) (HPC)) did it give?
A: 92 % of control

Q: And the T/C (dose: 15.0 mg/kg/injection, schedule: Q01DX005 (ip), vehicle: Klucel (hydroxypropylcellulose) (HPC))?
A: 101 % of control

Q: What about the T/C (dose: 30.0 mg/kg/injection, schedule: Q01DX005 (ip), vehicle: Klucel (hydroxypropylcellulose) (HPC)) of the same molecule?
A: 105 % of control

Q: And the T/C [4]?
A: 101 % of control

Q: What about the T/C [5] of the same molecule?
A: 96 % of control

Q: Which results are given for O=C1NC(=O)C2(CCc3ccccc3C2)N1 (stereo unspecified)?
A: T/C (dose: 50.0 mg/kg/injection, schedule: Q01DX009 (ip), vehicle: saline with Tween-80): 100 % of control; T/C (dose: 100.0 mg/kg/injection, schedule: Q01DX009 (ip), vehicle: saline with Tween-80): 100 % of control; T/C (dose: 200.0 mg/kg/injection, schedule: Q01DX009 (ip), vehicle: saline with Tween-80): 96 % of control; T/C (dose: 400.0 mg/kg/injection, schedule: Q01DX009 (ip), vehicle: saline with Tween-80): 97 % of control

Q: Which T/C (dose: 0.12 mg/kg/injection, schedule: Q01DX009 (ip), vehicle: water) does the source give for COc1cccc2c1C(=O)c1c(O)c3c(c(O)c1C2=O)C[C@@](O)(/C(C)=N/NC(=O)c1ccccc1)C[C@@H]3OC1CC(N)C(O)C(C)O1 (stereo partly specified) here?
A: 99 % of control and 104 % of control and 89 % of control

Q: And the T/C (dose: 0.5 mg/kg/injection, schedule: Q01DX005 (ip), vehicle: suspension in saline)?
A: 120 % of control

Q: And the T/C (dose: 0.5 mg/kg/injection, schedule: Q01DX005 (iv), vehicle: suspension in saline)?
A: 109 % of control

Q: And the T/C (dose: 0.65 mg/kg/injection, schedule: Q01DX009 (ip), vehicle: saline)?
A: 168 % of control

Q: And the T/C (dose: 1.0 mg/kg/injection, schedule: Q01DX005 (iv), vehicle: suspension in saline)?
A: 110 % of control

Q: And the T/C (dose: 1.0 mg/kg/injection, schedule: Q01DX009 (ip), vehicle: other)?
A: 150 % of control

Q: What about the T/C (dose: 1.08 mg/kg/injection, schedule: Q01DX009 (ip), vehicle: saline) of the same molecule?
A: 172 % of control

Q: What about the T/C (dose: 1.56 mg/kg/injection, schedule: Q04DX003 (ip), vehicle: saline) of the same molecule?
A: 177 % of control

Q: And the T/C (dose: 1.8 mg/kg/injection, schedule: Q01DX009 (ip), vehicle: saline)?
A: 190 % of control

Q: And the T/C (dose: 2.0 mg/kg/injection, schedule: Q01DX005 (iv), vehicle: suspension in saline)?
A: 108 % of control

Q: What about the T/C (dose: 2.0 mg/kg/injection, schedule: Q01DX009 (ip), vehicle: other) of the same molecule?
A: 166 % of control

Q: What about the T/C (dose: 2.0 mg/kg/injection, schedule: Q04DX003 (ip), vehicle: water) of the same molecule?
A: 160 % of control

Q: What about the T/C (dose: 3.0 mg/kg/injection, schedule: Q01DX009 (ip), vehicle: saline) of the same molecule?
A: 213 % of control

Q: And the T/C (dose: 3.0 mg/kg/injection, schedule: Q04DX003 (ip), vehicle: saline)?
A: 150 % of control

Q: And the T/C (dose: 3.0 mg/kg/injection, schedule: Q04DX003 (ip), vehicle: water)?
A: 115 % of control

Q: And the T/C (dose: 3.13 mg/kg/injection, schedule: Q04DX003 (ip), vehicle: saline)?
A: 176 % of control

Q: And the T/C (dose: 3.2 mg/kg/injection, schedule: Q01DX001 (ip), vehicle: water)?
A: 153 % of control

Q: What about the T/C (dose: 3.24 mg/kg/injection, schedule: Q04DX003 (ip), vehicle: water) of the same molecule?
A: 153 % of control

Q: What about the T/C (dose: 4.0 mg/kg/injection, schedule: Q01DX005 (ip), vehicle: saline) of the same molecule?
A: 181 % of control

Q: What about the T/C (dose: 4.0 mg/kg/injection, schedule: Q01DX005 (iv), vehicle: saline) of the same molecule?
A: 104 % of control

Q: What about the T/C (dose: 4.0 mg/kg/injection, schedule: Q01DX009 (ip), vehicle: other) of the same molecule?
A: 175 % of control

Q: And the T/C (dose: 4.2 mg/kg/injection, schedule: Q01DX001 (ip), vehicle: water)?
A: 158 % of control

Q: And the T/C (dose: 5.0 mg/kg/injection, schedule: Q01DX001 (ip), vehicle: saline)?
A: 168 % of control

Q: And the T/C (dose: 5.0 mg/kg/injection, schedule: Q04DX003 (ip), vehicle: saline)?
A: 163 % of control

Q: And the T/C (dose: 5.3 mg/kg/injection, schedule: Q01DX009 (ip), vehicle: saline)?
A: 157 % of control

Q: What about the T/C (dose: 5.4 mg/kg/injection, schedule: Q04DX003 (ip), vehicle: water) of the same molecule?
A: 171 % of control

Q: What about the T/C (dose: 5.6 mg/kg/injection, schedule: Q01DX001 (ip), vehicle: water) of the same molecule?
A: 165 % of control

Q: What about the T/C (dose: 6.25 mg/kg/injection, schedule: Q04DX003 (ip), vehicle: saline) of the same molecule?
A: 205 % of control

Q: And the T/C (dose: 7.5 mg/kg/injection, schedule: Q01DX001 (ip), vehicle: water)?
A: 177 % of control

Q: And the T/C (dose: 8.0 mg/kg/injection, schedule: Q01DX001 (ip), vehicle: saline)?
A: 163 % of control

Q: And the T/C (dose: 8.0 mg/kg/injection, schedule: Q01DX005 (ip), vehicle: saline)?
A: 229 % of control

Q: And the T/C (dose: 8.0 mg/kg/injection, schedule: Q01DX005 (ip), vehicle: suspension in saline)?
A: 174 % of control

Q: And the T/C (dose: 8.0 mg/kg/injection, schedule: Q01DX005 (iv), vehicle: suspension in saline)?
A: 151 % of control

Q: And the T/C (dose: 8.0 mg/kg/injection, schedule: Q01DX009 (ip), vehicle: other)?
A: 189 % of control

Q: And the T/C (dose: 8.0 mg/kg/injection, schedule: Q01DX009 (ip), vehicle: saline)?
A: 90 % of control

Q: What about the T/C (dose: 8.0 mg/kg/injection, schedule: Q04DX003 (ip), vehicle: saline) of the same molecule?
A: 163 % of control

Q: What about the T/C (dose: 8.0 mg/kg/injection, schedule: Q04DX003 (ip), vehicle: water) of the same molecule?
A: 116 % of control and 190 % of control and 215 % of control

Q: What about the T/C (dose: 8.3 mg/kg/injection, schedule: Q01DX009 (ip), vehicle: saline) of the same molecule?
A: 90 % of control

Q: What about the T/C (dose: 9.0 mg/kg/injection, schedule: Q04DX003 (ip), vehicle: water) of the same molecule?
A: 175 % of control

Q: And the T/C (dose: 10.0 mg/kg/injection, schedule: Q01DX001 (ip), vehicle: clinical formulation)?
A: 160 % of control

Q: And the T/C (dose: 10.0 mg/kg/injection, schedule: Q01DX001 (ip), vehicle: water)?
A: 181 % of control

Q: And the T/C (dose: 12.0 mg/kg/injection, schedule: Q01DX001 (ip), vehicle: clinical formulation)?
A: 164 % of control

Q: And the T/C (dose: 12.5 mg/kg/injection, schedule: Q04DX003 (ip), vehicle: saline)?
A: 187 % of control

Q: And the T/C (dose: 13.3 mg/kg/injection, schedule: Q01DX001 (ip), vehicle: saline)?
A: 113 % of control

Q: What about the T/C (dose: 13.3 mg/kg/injection, schedule: Q04DX003 (ip), vehicle: saline) of the same molecule?
A: 109 % of control

Q: And the T/C (dose: 14.0 mg/kg/injection, schedule: Q01DX001 (ip), vehicle: clinical formulation)?
A: 167 % of control

Q: What about the T/C (dose: 16.0 mg/kg/injection, schedule: Q01DX001 (ip), vehicle: clinical formulation) of the same molecule?
A: 188 % of control

Q: And the T/C (dose: 16.0 mg/kg/injection, schedule: Q01DX005 (iv), vehicle: saline)?
A: 211 % of control

Q: What about the T/C (dose: 16.0 mg/kg/injection, schedule: Q04DX003 (ip), vehicle: water) of the same molecule?
A: 180 % of control and 318 % of control

Q: And the T/C (dose: 18.0 mg/kg/injection, schedule: Q01DX001 (ip), vehicle: clinical formulation)?
A: 179 % of control

Q: What about the T/C (dose: 22.2 mg/kg/injection, schedule: Q01DX001 (ip), vehicle: saline) of the same molecule?
A: 95 % of control

Q: And the T/C (dose: 24.0 mg/kg/injection, schedule: Q04DX003 (ip), vehicle: water)?
A: 171 % of control

Q: And the T/C (dose: 32.0 mg/kg/injection, schedule: Q04DX003 (ip), vehicle: water)?
A: 163 % of control and 233 % of control

Q: What about the T/C (dose: 48.0 mg/kg/injection, schedule: Q04DX003 (ip), vehicle: water) of the same molecule?
A: 117 % of control

Q: And the T/C (dose: 64.0 mg/kg/injection, schedule: Q04DX003 (ip), vehicle: water)?
A: 109 % of control and 114 % of control

Q: And the T/C (dose: 96.0 mg/kg/injection, schedule: Q04DX003 (ip), vehicle: water)?
A: 89 % of control

Q: N#CC1(c2ccccc2)CCN(c2c3ccccc3nc3ccccc23)CC1 was tested. Which T/C (dose: 100.0 mg/kg/injection, schedule: Q04DX003 (ip), vehicle: Klucel (hydroxypropylcellulose) (HPC)) did it give?
A: 103 % of control and 110 % of control

Q: What about the T/C (dose: 200.0 mg/kg/injection, schedule: Q04DX003 (ip), vehicle: Klucel (hydroxypropylcellulose) (HPC)) of the same molecule?
A: 109 % of control and 112 % of control

Q: What about the T/C (dose: 400.0 mg/kg/injection, schedule: Q04DX003 (ip), vehicle: Klucel (hydroxypropylcellulose) (HPC)) of the same molecule?
A: 117 % of control and 123 % of control

Q: Which T/C (dose: 60.0 mg/kg/injection, schedule: Q01DX005 (ip), vehicle: Klucel (hydroxypropylcellulose) (HPC)) does the source give for CC(C)(C)c1cc(/C=N/n2c(-c3ccccc3)nc3ccccc3c2=O)cc(C(C)(C)C)c1O here?
A: 98 % of control

Q: What about the T/C [4] of the same molecule?
A: 97 % of control

Q: What about the T/C [5] of the same molecule?
A: 90 % of control
